Reference: patent publication US20250213556A1, “COMBINATION THERAPY FOR TREATING CANCER” (AstraZeneca AB, priority 2022, published 2025)

Columns and labels:
LnCAP cells = test: Cell proliferation assay and combination benefit calculation, LnCAP; assay type: cell-based; details: Homo sapiens, monotherapy
Procedure: (§1) Cell line identification was validated using the CellCheck assay (IDEXX Bioanalytics, Westbrook, ME, USA). All cell lines were validated free of virus Mycoplasma contamination using the MycoSEQ assay (Thermo Fisher Scientific, Waltham, MA, USA) or STAT-Myco assay (IDEXX Bioanalytics). All cell lines were grown RPMI-1640 growth media (Corning 17-105-CV) supplemented with 10% fetal bovine serum (FBS) or, when indicated, 10% charcoal stripped FBS (ThermoFisher Scientific, 12676029) and 2 mM glutamine.
(§2) Cells in 384-well or 96-well plates were dosed using an Echo 555 (LabCyte, San Jose, CA, USA) or using the HP D300e Digital Dispenser (HP Life Science Dispensing), respectively.
(§3) Live cell count pre- and post-treatment (7 days after treatment) was determined using CellTiter-Glo as per manufacturer's instructions (Promega, Madison, WI, USA; G7570).
(§4) Cell viability was determined with the Sytox Green assay as described in Davies 2012 and the AC50 calculated. The HSA (Highest Single Agent) Synergy Score was calculated according to Bernenbaum 1989.
(§5) Using the method of example 1, these ATM-KO cell lines were determined to be sensitive to AZD5305, with an AC50 of 3 nM, in contrast to the parental (or control) LNCAP cell line which is not sensitive to AZD5305 monotherapy, with an AC50 greater than 10 μM.
(§6) The HSA (Highest Single Agent) Synergy Score was calculated according to Bernenbaum 1989 when the AZD5305 and enzalutamide were used in combination.

C4-2 cells = test: Cell proliferation assay and combination benefit calculation, C4-2; assay type: cell-based; details: 168 h, monotherapy, 7 days after treatment
Procedure: as §1, §2, §3, §4

VCAP cells = test: Cell proliferation assay and combination benefit calculation, VCAP; assay type: cell-based; details: Homo sapiens, 168 h, monotherapy, 7 days after treatment
Procedure: as §1, §2, §3, §4

CWR22Pc-R1-AD1 cells = test: Cell proliferation assay and combination benefit calculation, CWR22Pc-R1-AD1; assay type: cell-based; details: 168 h, monotherapy, 7 days after treatment
Procedure: as §1, §2, §3, §4

ATM-KO LNCAP cells = test: Cell proliferation assay and synergy in isogenic ATM-KO LNCAP cells; assay type: cell-based; details: monotherapy; for AC50: Homo sapiens, LNCaP
Procedure: as §2, §3, §4
An isogenic ATM-KO model in LNCAP cells was generated with CRISPR-Cas9 technology.
as §5, §6

LNCaP tumours = test: In vivo pre-clinical model LNCaP (subcutaneous xenograft); details: 42 days, NOD SCID mice, vs vehicle
Procedure: LNCaP cells (1×10^7 cells 1:1 in Matrigel) were implanted subcutaneously onto the flank of male NOD SCID mice (aged 5-8 weeks weighing approximately 25-30 g, supplied by Charles River) using a 23-gauge needle.
The mice were dosed for 42 days, with the dose calculated for individual animals on day of dosing, and with a […] dosing volume.
Tumours were measured ×3 per week using digital calipers. The length and width of the tumour will be measured and volume calculated using the following formula: […]
The bodyweight of all mice in the study was measured and recorded 3 times per week; this information was used to calculate precise dosing for each animal.

C901 tumours = test: In vivo pre-clinical model C901 patient derived xenograft (PDX); details: 21 days, NMRI Nude mice, vs vehicle
Procedure: C901 patient derived xenograft (PDX) model was engrafted subcutaneously onto the flank of donor mice and monitored once a week until ethical size (1000-2000 mm^3). When donor tumours reached ethical size, PDX fragments measuring approximately 20 mm^3 were engrafted in the study mice (male NMRI Nude mice, aged 6-9 weeks, supplied by Janvier labs).
The mice were dosed for 21 days, with the dose calculated for individual animals on day of dosing, and with a […] dosing volume.
Tumours were measured ×2 per week using digital calipers. The length and width of the tumour will be measured and volume calculated using the following formula: […]
The bodyweight of all mice in the study was measured and recorded 2 times per week; this information was used to calculate precise dosing for each animal.

[1] = 168 h, LnCAP, 7 days after treatment
[2] = LnCAP parental (control), Example 2

| Compound | AC50 (LnCAP cells; [1]) [µM] | AC50 (LnCAP cells; [2]) [µM] | AC50 (C4-2 cells) [µM] | AC50 (VCAP cells) [µM] | AC50 (CWR22Pc-R1-AD1 cells) [µM] | AC50 (ATM-KO LNCAP cells; LnAP-ATM-KO-CL.1) [µM] | Sensitivity of the cell lines (ATM-KO LNCAP cells; the cell lines of Example 2 (LNCAP parental and ATM-KO)) | tumour growth inhibition (TGI) (LNCaP tumours; enzalutamide 4 mg/kg QD) | TGI (C901 tumours; enzalutamide 60 mg/kg QD) [%] | AC50 (ATM-KO LNCAP cells; ATM-KO cell lines (clone.1 and clone.2)) [µM] | tumour growth inhibition (TGI) (LNCaP tumours; AZD5305 1 mg/kg QD) | TGI (C901 tumours; AZD5305 1 mg/kg QD) [%] |
| --- | --- | --- | --- | --- | --- | --- | --- | --- | --- | --- | --- | --- |
| CNC(=O)c1ccc(N2C(=S)N(c3ccc(C#N)c(C(F)(F)F)c3)C(=O)C2(C)C)cc1F [Enzalutamide, 4-(3-(4-cyano-3-(trifluoromethyl)phenyl)-5,5-dimethyl-4-oxo-2-thioxoimidazolidin-1-yl)-2-fluoro-N-methylbenzamide] | 1.41 | > 10 | 8.33 | 2.94 | 9.59 | > 10 | No sensitivity could be measured | no or minimal (4%) | 92 | – | – | – |
| CCc1cc2ncc(CN3CCN(c4ccc(C(=O)NC)nc4)CC3)cc2[nH]c1=O [AZD5305, 5-{4-[(7-ethyl-6-oxo-5,6-dihydro-1,5-naphthyridin-3-yl)methyl]piperazin-1-yl}-N-methylpyridine-2-carboxamide] | 12 | > 10 | 20 | 1.6 | 0.0316 | – | – | – | – | 0.003 | no or minimal (4%) | 90 |
